Literature values as cited in patent US20130150551A1, “PROCESSES FOR THE PRODUCTION OF HYDROGENATED PRODUCTS AND DERIVATIVES THEREOF” (BIOAMBER S.A.S., priority 2010, published 2013).

Conditions: first acid group

pKa1: 4.43
SMILES: O=C(O)CCCCC(=O)O [AA, adipic acid]
